According to patent US9522930B2, “Chartreusin analogues” (Leibniz-Institut Für Naturstoff-Forschung Und …, priority 2012, dated 2016):
Converted amounts (≈) assume the structure as drawn. Like-named read-outs stand apart in the source and are kept apart here.

Key:
[1] = system: human umbilical vein endothelial cells HUVEC (ATCC CRL-1730); experiment: Growth inhibition (antiproliferative effect) of HUVEC; format: cell-based; details: read-out: antiproliferative GI50, HUVEC
Method: (§2) Compounds were assayed against human umbilical vein endothelial cells HUVEC (ATCC CRL-1730) and human chronic myeloid leukemia cells K-562 (DSM ACC 10) for their antiproliferative effects (GI50) and against human cervix carcinoma cells HeLa (DSM ACC 57) for their cytotoxic effects (CC50) as previously described (Scherlach, K., Partida-Martinez, L. P., Dahse, H. M. & Hertweck, C. Antimitotic rhizoxin derivatives from a cultured bacterial endosymbiont of the rice pathogenic fungus Rhizopus microsporus. Journal of the American Chemical Society 128, 11529-11536 (2006)).

[2] = Cytotoxicity against HeLa; details: human, HeLa cells (human cervix carcinoma, DSM ACC 57)
Method: as §2

[3] = system: Mycobacterium vaccae 10670; experiment: Antimicrobial activity (MIC), test strain Mycobacterium vaccae 10670; format: cell-based
From the text: Antimicrobial (MIC value [μM]), cytotoxic (CC50 [μM] for HeLa) and antiproliferative (GI50 [μM] for HUVEC, K-562, HT-29 and MEL-HO) activities of chartreusin and its derivatives. Test strain: Mycobacterium vaccae 10670.

[4] = system: human chronic myeloid leukemia cells K-562 (DSM ACC 10); experiment: Growth inhibition (antiproliferative effect) of K-562; format: cell-based
Method: as §2

[5] = in vitro; details: human
Method: as §2

[6] = system: human MEL-HO (ACC 62) melanoma cells; experiment: Growth inhibition of MEL-HO in the presence or absence of light; format: cell-based
Method: (§1) The human HT-29 colon adenocarcinoma cells (ACC 299) and the human MEL-HO (ACC 62) melanoma cells were grown as previously described (Ueberschaar, N.; Dahse, H.-M.; Bretschneider, T.; Hertweck, C. Angew. Chem. Int. Ed. 2013, 52, 6185-6189).

[7] = system: human HT-29 colon adenocarcinoma cells (ACC 299); experiment: Growth inhibition of HT-29 in the presence or absence of light; format: cell-based
Method: as §1

[8] = system: methicillin-resistant Staphylococcus aureus (MRSA); experiment: Antibiotic activity against MRSA; format: cell-based
[9] = system: human cervix carcinoma cells HeLa (DSM ACC 57); experiment: Cytotoxicity against HeLa; details: for CC50: read-out: cytotoxic CC50, HeLa, HeLa
Method: as §2

[10] = Mycolicibacterium vaccae, Test strain: Mycobacterium vaccae 10670, read-out: Antimicrobial MIC value, Mycobacterium vaccae
[11] = Homo sapiens, K562; read-out: antiproliferative GI50, K-562
[12] = 8 h, read-out: antiproliferative GI50, Mel-HO, 420 nm, 3 × 8 h
[13] = read-out: antiproliferative GI50, Mel-HO, w/o light
[14] = Homo sapiens, HT-29, 8 h, read-out: antiproliferative GI50, HT-29, 420 nm, 3 × 8 h, HT-29, 420 nm, 3 × 8 h
[15] = Homo sapiens, HT-29, read-out: GI50 with light, HT-29, HT-29, with light (blue LED)
[16] = Homo sapiens, HT-29, read-out: GI50 without light, HT-29, HT-29, without light (absence of light)
[17] = Homo sapiens, HT-29, read-out: antiproliferative GI50, HT-29, w/o light, HT-29, w/o light
[18] = read-out: GI50 without light, HT-29, HT-29, without light (absence of light)
[19] = Homo sapiens, K562, read-out: antiproliferative GI50, K-562
[20] = Mycolicibacterium vaccae, 10670, read-out: Antimicrobial MIC value, Mycobacterium vaccae
[21] = Test strain: Mycobacterium vaccae 10670, read-out: Antimicrobial MIC value, Mycobacterium vaccae
[22] = K-562; read-out: antiproliferative GI50, K-562

| Compound | GI50 ([1]; Homo sapiens) | CC50 [2] | MIC [3, 10] | GI50 [4, 11] | other results |
| --- | --- | --- | --- | --- | --- |
| CCc1cc2oc(=O)c3c(O)c4cccc(O[C@@H]5OC(C)[C@H](O)[C@H](O)C5O[C@H]5OC(C)[C@H](O)C(OC)[C@H]5O)c4c4oc(=O)c(c1)c2c34 (stereo partly shown) [(1→2)Abeohomochartreusin, (1→2)-Abeo-homochartreusin] | 26.6 µM | 58.1 µM | 19.1 µM (≈ 12.5 µg/mL) | 11.6 µM | – |
| COC1[C@@H](O)C(C)O[C@H](OC2[C@H](Oc3cccc4c(O)c5c(=O)oc6cc(Br)cc7c(=O)oc(c34)c5c67)OC(C)[C@H](O)[C@@H]2O)[C@@H]1O (stereo partly shown) [(1→2)Abeobromchartreusin, (1→2)-Abeo-bromochartreusin] | 25.1 µM | 26.1 µM | 17.7 µM (≈ 12.5 µg/mL) | 8.65 µM | – |
| COC1[C@@H](O)C(C)O[C@H](OC2[C@H](Oc3cccc4c(O)c5c(=O)oc6ccc(Br)c7c(=O)oc(c34)c5c67)OC(C)[C@H](O)[C@@H]2O)[C@@H]1O (stereo partly shown) [Bromchartreusin, 1-Bromochartreusin] | 65.8 µM | 48.2 µM | 8.9 µM (≈ 6.28 µg/mL) | 8.79 µM | – |
| C#Cc1cc2oc(=O)c3c(O)c4cccc(O[C@@H]5OC(C)[C@H](O)[C@H](O)C5O[C@H]5OC(C)[C@H](O)C(OC)[C@H]5O)c4c4oc(=O)c(c1)c2c34 (stereo partly shown) [(1→2)Abeo-ethinylchartreusin, (1→2)-Abeo-ethynylchartreusin] | 7.84 µM | – | 19.2 µM (≈ 12.5 µg/mL) | – | CC50 [5]: 13.4 µM; GI50 [6, 12]: 1.38 µM; GI50 [6, 13]: 2 µM; activity higher in the presence of light, HT-29 ([7]; HT-29, with light vs without light): 5 fold; GI50 [7, 14]: 1.69 µM; GI50 [7, 15]: 1.7 µM; GI50 [7, 16]: 7 to 9.4 µM; GI50 [7, 17]: 8.61 µM; GI50 [7, 18]: 8.6 µM; GI50 [4, 19]: 3.23 µM; antibiotic activity against MRSA relative to chartreusin and ciprofloxacin [8]: as active as the natural product and are even more potent than the reference antibiotic ciprofloxacin |
| CCc1ccc2oc(=O)c3c(O)c4cccc(O[C@@H]5OC(C)[C@H](O)C(O)C5O[C@H]5OC(C)[C@H](O)C(OC)C5O)c4c4oc(=O)c1c2c34 (stereo partly shown) [Homochartreusin] | 7.18 µM | 23.1 µM | 9.6 µM (≈ 6.28 µg/mL) | 2.14 µM | selectivity (GI50 HUVEC versus cytotoxic activity HeLa) ([9]; compared with Chartreusin, HUVEC GI50 similarly low, HeLa CC50 different): higher selectivity |
| COc1ccc2oc(=O)c3c(O)c4cccc(O[C@@H]5OC(C)[C@H](O)[C@H](O)C5O[C@H]5OC(C)[C@H](O)C(OC)[C@H]5O)c4c4oc(=O)c1c2c34 (stereo partly shown) [Methoxychartreusin] | > 76 µM | > 76 µM | 76 µM (≈ 49.9 µg/mL) | > 76 µM | – |
| COC1[C@@H](O)C(C)O[C@H](OC2[C@H](Oc3cccc4c(O)c5c(=O)oc6cc(C)cc7c(=O)oc(c34)c5c67)OC(C)[C@H](O)[C@@H]2O)[C@@H]1O (stereo partly shown) [(1→2)Abeochartreusin, (1→2)-Abeo-chartreusin] | 5.78 µM | 14.2 µM | 4.87 µM (≈ 3.12 µg/mL) | 2.03 µM | – |
| COC1[C@@H](O)C(C)O[C@H](OC2[C@H](Oc3cccc4c(O)c5c(=O)oc6cccc7c(=O)oc(c34)c5c67)OC(C)[C@H](O)[C@@H]2O)[C@@H]1O (stereo partly shown) [Norchartreusin] | 79.8 µM | 70.7 µM | 2.5 µM (≈ 1.57 µg/mL) | 31.6 µM | – |
| O=C(Oc1c2cccc(OC(=O)N3CCC(N4CCCCC4)CC3)c2c2oc(=O)c3c(Br)ccc4oc(=O)c1c2c43)N1CCC(N2CCCCC2)CC1 [Bromchartarin-1,10 bis-1,4′-bipiperidine-1′-carboxylate] | 10 µM | 20.2 µM | – | 9.27 µM | MIC [3, 20]: > 100 µM |
| COC1[C@@H](O)C(C)O[C@H](OC2[C@H](Oc3cccc4c(O)c5c(=O)oc6ccc(O)c7c(=O)oc(c34)c5c67)OC(C)[C@H](O)[C@@H]2O)[C@@H]1O (stereo partly shown) | 35 µM | 25.5 µM | 2.4 µM (≈ 1.54 µg/mL) | 4.82 µM | – |
| vinylchartarin-1,10 bis-1,4′-bipiperidine-1′-carboxylate | – | – | – | – | GI50 [1]: > 68 µM; CC50 [9]: > 68 µM; MIC [3, 21]: >100 µM; GI50 [4, 22]: > 68 µM |
| Norchartarin-1,10 bis-1,4′-bipiperidine-1′-carboxylate | – | – | – | – | GI50 [1]: 52.3 µM; CC50 [9]: > 71 µM; MIC [3, 21]: >100 µM; GI50 [4, 22]: 52.2 µM |
| Cc1ccc2oc(=O)c3c(OC(=O)N4CCC(N5CCCCC5)CC4)c4cccc(OC(=O)N5CCC(N6CCCCC6)CC5)c4c4oc(=O)c1c2c34 [Chartarin-1,10 bis-1,4′-bipiperidine-1′-carboxylate] | 4.43 µM | 10.1 µM | – | 3.18 µM | MIC [3, 20]: > 100 µM |
| C=Cc1cc2oc(=O)c3c(O)c4cccc(O[C@@H]5OC(C)[C@H](O)[C@H](O)C5O[C@H]5OC(C)[C@H](O)C(OC)[C@H]5O)c4c4oc(=O)c(c1)c2c34 (stereo partly shown) [(1→2)Abeovinylchartreusin, (1→2)-Abeo-vinylchartreusin] | 16.9 µM | – | 19.2 µM (≈ 12.5 µg/mL) | – | CC50 [5]: 33.7 µM; GI50 [6, 12]: 0.48 µM; GI50 [6, 13]: 1.03 µM; GI50 [7, 14]: 3.06 µM; GI50 [7, 15]: 3.1 µM; GI50 [7, 16]: 7 to 9.4 µM; GI50 [7, 17]: 9.35 µM; GI50 [7, 18]: 9.4 µM; GI50 [4, 19]: 4.9 µM |
| C#Cc1ccc2oc(=O)c3c(O)c4cccc(O[C@@H]5OC(C)[C@H](O)[C@H](O)C5O[C@H]5OC(C)[C@H](O)C(OC)[C@H]5O)c4c4oc(=O)c1c2c34 (stereo partly shown) [Ethinylchartreusin, Ethynylchartreusin] | > 77 µM | > 77 µM | 19.2 µM (≈ 12.5 µg/mL) | 64.1 µM | GI50 ([7]; Homo sapiens, HT-29, 8 h, HT-29, 420 nm, 3 × 8 h, read-out: antiproliferative GI50, HT-29, 420 nm, 3 × 8 h): 26.9 µM; GI50 ([7]; Homo sapiens, HT-29, HT-29, w/o light, read-out: antiproliferative GI50, HT-29, w/o light): 33.2 µM |
